# Assays:
# c-Myc [1] = experiment: Drug inhibition assay: BLI of SKBR3 stable cells constitutively expressing the c-Myc sensor (SK ST), normalized to full-length FL cells (SK FST); assay type: cell-based, human; conditions: for complemented FL activity: SK ST cells, after normalization to effect on FL activity of SK FST cells, PD98059 2 h, U0126 1 h, AT 16 h; for reduction in complemented FL activity compared between drugs: SK ST cells normalized to SK FST cells
# Method: (§1) To test the ability of the sensor to monitor c-Myc phosphorylation levels on drug treatment, the SKBR3 and 293T stable cells (SK ST and 293T ST) were established that constitutively express the sensor. SKBR3 and 293T stable cells were also constructed that constitutively express the full-length FL (SK FST and 293T FST) for the control of direct drug effect on FL activity.
# (§2) Luciferase Activity Assay: BLI of luciferase activity in intact cells was performed as described previously (Hann (2006) Semin Cancer Biol 16(4):288-302). In brief, 24 h after transfection, culture medium was replaced with a PBS solution (pH 7.0) of 45 μg/mL D-Luc for FL imaging or of 10 μg/mL of Clz for RL imaging with the IVIS BLI system (Xenogen). Images were acquired at 2-min intervals until the peak signal was reached. The photon output of FL or RL imaging in transiently transfected cells was normalized to co-expressed RL or FL activity, respectively, measured by an in vitro luminometry assay as described previously (Chan et al. (2008) Cancer Res. 68:216-226), then normalized to the total protein in the cell lysates, measured by the BioRad DC protein assay as directed by the manufacturer. In stable cells, the photon output of FL imaging was normalized to the total protein in the cell lysates.
# (§3) Drug Inhibition Assay: SKBR3 stable cells constitutively expressing the sensor system (SK ST) or the full-length FL (SK FST) were treated with PD98059 (Cell Signaling) for 2 h, U0126 (Cell Signaling) for 1 h, and purified AT (Sequoia Research Products) for 16 h at the indicated concentrations and imaged with D-Luc in the IVIS 50 BLI system (FIGS. 6A and 6B, and FIGS. 10A-12D). In addition, 293T stable cells constitutively expressing the sensor system (293T ST) or the full-length FL (293T FST) were treated with AT for 16 h at the indicated concentrations (FIGS. 6A and 6B, and FIGS. 13A-13D) and imaged with D-Luc in the IVIS 50 system. The photon output of FL imaging was normalized to the total protein content, and the FL activity of SK ST or 293T ST was normalized to that of SK FST or 293T FST, respectively. SKBR3 and 293T cells were treated as above and lysed for Western blot analysis of phospho c-Myc, c-Myc, and β-actin proteins. The correlation coefficient between the fold change of normalized FL activity and the fold change of normalized phospho c-Myc level (phospho c-Myc/β-actin) was determined based on the R^2 value.
# c-Myc [2] = experiment: Western blot analysis of endogenous phospho c-Myc in SKBR3 cells; assay type: cell-based, human; conditions: for endogenous c-Myc phosphorylation level: Western blot
# Method: (§4) FIGS. 26A and 26B illustrate the inhibition of endogenous c-Myc. FIG. 26A: Western blot analysis of SKBR3 cells after NTZ treatment was performed using phospho c-Myc, c-Myc protein, and β-actin antibodies. […] The fold-change of phospho c-Myc level was plotted against the log scale of NTZ concentration.
# (§5) Western Blot Analysis: Total cell lysates were collected using 1× cell lysis buffer (Cell Signaling), as directed by the manufacturer. The protein concentration was determined using the BioRad DC protein assay. SDS/PAGE analysis of 50 μg of protein was transferred to an lmmobilon-P membrane (Millipore). Anti-phosphor-c-Myc (Thr58/Ser62) and anti-c-Myc antibody (Cell Signaling) were used to visualize the phospho c-Myc and c-Myc protein, respectively, as directed by the manufacturer. Anti-FLuc-HRP antibody was used to detect the FL fragments, as directed by the manufacturer (Sigma-Aldrich). β-actin protein was used as a loading control and detected by anti-β-actin antibody (Sigma-Aldrich). Immunoblots were developed using the Pierce ECL Kit, as directed by the manufacturer. Protein levels were determined by quantifying the band intensities on Western blot analysis using ImageJ's ROI manager.
# as §3
# c-Myc [3] = experiment: Phospho c-Myc level in lymphoma cells; assay type: cell-based; conditions: read-out: IC50, inhibition of phospho c-Myc level
# Method: as §4
# c-Myc [4] = experiment: Phospho c-Myc level in sarcoma cells; assay type: cell-based; conditions: read-out: IC50, inhibition of phospho c-Myc level
# Method: as §4
# [5] = tested on: SK-ST subcutaneous tumor xenograft; experiment: SK-ST subcutaneous tumor xenograft mouse model under NTZ treatment; assay type: in vivo; conditions: NTZ vs CMC treated groups, up to 27 days after implantation
# Source text: FIGS. 27A and 27B illustrate the efficacy of NTZ in a SK-ST subcutaneous tumor xenograft mouse model. FIG. 27A: SK-ST stable cells were subcutaneously implanted as indicated and treated with NTZ or CMC. Representative images of FL imaging at indicated days of treatment are shown. FIG. 27B: Photon output of SK-ST cells with NTZ or CMC treatment is plotted against days after implantation. * P<0.05. […] FIG. 28A: Representative photographs of removed tumors from CMC or NTZ treated mice 27 days after implantation. FIG. 28B: Plot of caliper measured tumor sizes of NTZ or CMC treated groups at different days after implantation. *P<0.05, **P<0.01. FIGS. 29A and 29B illustrate immunohistochemistry and western blot analysis of NTZ treated tumor samples. FIG. 29A: Representative images of H&E, Ki67 and caspase-3 IHC staining of tumor tissue samples from each group. FIG. 29B: Western blot analysis of tumor tissue samples using phospho c-Myc, c-Myc and α-tubulin antibodies.
# [6] = tested on: NFL-c-MycS62A mutant sensor; experiment: BLI of SKBR3 cells transiently transfected with the S62A mutant sensor; assay type: cell-based, human; conditions: PD98059 1 h
# Method: FIG. 14A is a digital image showing the NFL-c-Myc WT construct or the NFL-c-MycS62A mutant construct transiently transfected into SKBR3 cells with GSK 35-433-CFL construct and subjected to PD98059 of indicated concentration for 1 h, followed by BLI.
# FIG. 14B is a graph showing FL activity normalized to co-transfected RL activity and the total protein content and plotted against the drug concentration.
# These differential signal inhibitions also were correlated with the decreased endogenous c-Myc phosphorylation level, as shown in FIG. 6A.
# c-Myc [7] = conditions: Hydbring et al. 2009; cited from earlier work
# c-Myc [8] = experiment: Drug inhibition assay: BLI of 293T stable cells expressing the c-Myc sensor (293T ST), normalized to 293T FST; assay type: cell-based, human; conditions: 293T ST cells; after normalization to FL activity of 293T FST cells; AT 16 h
# Method: as §1
# as §2, with “lysates. […]” for “lysates.”
# c-Myc [9] = experiment: Western blot analysis of endogenous phospho c-Myc in 293T cells; assay type: cell-based, human
# Method: as §5, with “Immunoblots were developed using the Pierce ECL Kit, as directed by the manufacturer.” left out
# Drug Inhibition Assay: SKBR3 stable cells constitutively expressing the sensor system (SK ST) or the full-length FL (SK FST) were treated with PD98059 (Cell Signaling) for 2 h, U0126 (Cell Signaling) for 1 h, and purified AT (Sequoia Research Products) for 16 h at the indicated concentrations and imaged with D-Luc in the IVIS 50 BLI system (FIGS. 6A and 6B, and FIGS. 10A-12D). […] The correlation coefficient between the fold change of normalized FL activity and the fold change of normalized phospho c-Myc level (phospho c-Myc/β-actin) was determined based on the R^2 value.
# c-Myc [10] = experiment: Hydrodynamic injection of the c-Myc sensor and BLI in Eμ-tTA/Tet-O-MYC transgenic mice; assay type: in vivo
# Source text: To test the in vivo application of the sensor system, SKBR3 cells were first transiently transfected separately with equal DNA molar amounts of the vectors pcDNA3.1(+), GSK 35-433-CFL/NFL-c-Myc or GSK 35-433-CFL/NFL-c-Myc T851 and implanted them subcutaneously in different locations in each nude mouse (n=3; FIG. 7A). hRL was also co-expressed for control of transfection efficiency. […] However, on intraperitoneal injection of the FL substrate D-Luciferin (D-Luc), xenografts carrying pcDNA3.1(+) had very low complemented FL activity, whereas those carrying GSK 35-433-CFL/NFL-c-Myc had 10.6-fold higher activity. Those carrying GSK 35-433-CFL/NFL-c-Myc T851 had 4.7-fold higher activity after normalization to their hRL activity (FIG. 7C). Thus, the complemented FL activity determined by the phosphorylation status of NFL-c-Myc can be imaged and quantified in a mouse xenograft model. The sensor system was also transiently expressed in the liver of two transgenic mice using hydrodynamic injection. These mice carried a liver-specific transgene of c-Myc under control of the Tet system (Shachaf et al. (2007) Blood 110: 2674-2684).
# Both mice had doxycycline discontinued, followed by a 29-day course of treatment with AT in one mouse and with PBS in the other mouse. […] This signal reduction was consistent with the reduced endogenous c-Myc phosphorylation and the histological changes in the liver tissue samples (FIG. 7E).
# Hydrodynamic Injection: Eμ-tTA/Tet-O-MYC transgenic mice (Shachaf et al. (2007) Blood 110: 2674-2684) (n=2) were removed from doxycycline treatment at 8 wk of age and underwent gavage with AT or PBS as described above. At 29 d after treatment, these two mice underwent imaging studies to characterize the liver phospho c-Myc level after hydrodynamic injection (Frame et al., (2001) Mol. Cell 7: 1321-1327) of the c-Myc sensor. […]
# [11] = tested on: SK ST and SK FST xenografts; experiment: BLI of SK ST and SK FST subcutaneous xenografts in nude mice under AT treatment; assay type: in vivo
# Method: The mice underwent gavage with AT (20 μL, 1.25 mM; n=5) or with PBS (20 μL; n=5) every other day.
# BLI of Living Mice: BLI of mouse xenografts was performed with the IVIS Spectrum optical imaging system (Xenogen) as described previously (Chan et al. (2008) Cancer Res. 68:216-226, incorporated herein by refrence in its entirety), with some modifications. At 4 h after transient transfection with the indicated constructs (FIG. 7A), 5×10^6 SKBR3 cells were implanted subcutaneously into the indicated locations of nude mice (nu/nu; n=3). At 16 h after cell implantation, a Clz PBS (0.3 μg/μL; 100 μL) solution was injected intravenously for RL imaging. Then, 8 h later, FL imaging was acquired with D-Luc PBS solution (45 μg/μL; 100 μL) via intraperitoneal injection. Subsequently, 5×10^6 each of SK ST and SK FST cells were implanted subcutaneously into nude mice (nu/nu; n=10) as indicated (FIG. 8A). FL imaging was performed 1 day after the implantation and every other day thereafter. After each FL imaging, half of the mice underwent gavage with AT PBS solution (1.25 mM; 20 μL), and the other half did so with PBS only (20 μL). After 23 d of treatment, the mice were killed, and xenograft tissue samples were collected for Western blot analysis of phospho c-Myc, c-Myc, and α-tubulin proteins.
# c-Myc [12] = conditions: Shachaf et al. 2007; cited from earlier work
compound,measurement,setting,value
"CC(=O)Oc1ccccc1C(=O)Nc1ncc([N+](=O)[O-])s1 [NTZ, nitazoxanide]",luciferase activity when cells are exposed to nitazoxanide,c-Myc [1]; in vitro validation of the assay system,decrease in luciferase activity
same,IC50,"c-Myc [2]; read-out: IC50, inhibition of phospho c-Myc level",122 nM
same,IC50,c-Myc [3],440 nM
same,IC50,c-Myc [4],12 nM
same,tumor growth (caliper measured tumor sizes),[5],inhibition of tumor growth
COc1cccc(-c2cc(=O)c3ccccc3o2)c1N [PD98059],complemented FL activity,c-Myc [1],dose-dependent reduction
same,response of mutant sensor to phosphorylation inhibition of c-Myc,[6],did not respond
same,endogenous c-Myc phosphorylation level,c-Myc [2],decreased
same,c-Myc phosphorylation level in vitro,c-Myc [7],decrease
"CC(C)c1c(C(=O)Nc2ccccc2)c(-c2ccccc2)c(-c2ccc(F)cc2)n1CC[C@@H](O)C[C@@H](O)CC(=O)O [AT, Atorvastatin]",reduction in complemented FL activity compared between drugs,c-Myc [1],greater reduction in complemented FL activity with lower drug concentrations than did U0126
same,complemented FL activity,c-Myc [1],dose-dependent reduction
same,complemented FL activity,c-Myc [8],dose-dependent increase
same,endogenous c-Myc phosphorylation level,c-Myc [2],decreased
same,endogenous c-Myc phosphorylation level,c-Myc [9],increase
same,liver tumor size,"c-Myc [10]; 29-day treatment, AT vs PBS, one mouse each",no significant difference
same,endogenous c-Myc phosphorylation in liver tissue samples,c-Myc [10]; Western blot after 29-day treatment,reduced
same,complemented FL activity in liver,"c-Myc [10]; on addition of D-Luc, AT vs PBS treated mouse",much lower
same,c-Myc phosphorylation levels in tumor tissue samples,"[11]; 23 d after implantation, Western blot",decreased
same,sensor signal (complemented FL activity of SK ST normalized to SK FST),[11]; AT group,sustained decrease
same,tumor size,[11]; AT vs PBS group,no detectable difference
same,tumor growth,[11]; eventual effect of AT,reduced tumor growth
same,complemented FL activity of SK ST xenografts,"[11]; from 10 d after implantation, gavage AT 20 μL 1.25 mM every other day",increased only slightly
same,FL activity of SK FST xenografts,[11]; up to about 18 d after implantation,higher in the PBS-treated group compared with the AT-treated group
same,c-Myc-induced lymphomagenesis,c-Myc [12],preventing
same,phosphorylation of c-Myc,c-Myc [12],reduce
N#CC(=C(/N)Sc1ccccc1N)/C(C#N)=C(\N)Sc1ccccc1N [U0126],reduction in complemented FL activity compared between drugs,c-Myc [1],greater reduction than PD98059
same,complemented FL activity,c-Myc [1],dose-dependent reduction
same,endogenous c-Myc phosphorylation level,c-Myc [2],decreased
same,c-Myc phosphorylation level in vitro,c-Myc [7],decrease

# — patent publication US20120270914A1, “SPLIT-LUCIFERASE C-MYC SENSOR AND USES THEREOF” (THE BOARD OF TRUSTEES OF THE LELAND STANFORD JUNIOR …, priority 2011, published 2012)
